Measured values published in ChEMBL document CHEMBL4017480, “Discovery and optimization of selective FGFR4 inhibitors via scaffold hopping” (Bioorg Med Chem Lett, 2017).

Key:
[1] = Volume of distribution in Balb/c mouse at 0.2 mg/kg, iv administered as single bolus dose by LC-MS/MS analysis; format: ADME, organism-based; settings: in vivo
[2] = target: T1, Tyrosine-protein kinase Tec (Homo sapiens) (UniProt P42680); test: Inhibition of human TEC at 10 uM using poly[Glu:Tyr] (4:1) as substrate measured after 120 mins in presence of [gamma33P]ATP by P81 ion exchange chromatographic method relative to control
T1 sequence (whole entry): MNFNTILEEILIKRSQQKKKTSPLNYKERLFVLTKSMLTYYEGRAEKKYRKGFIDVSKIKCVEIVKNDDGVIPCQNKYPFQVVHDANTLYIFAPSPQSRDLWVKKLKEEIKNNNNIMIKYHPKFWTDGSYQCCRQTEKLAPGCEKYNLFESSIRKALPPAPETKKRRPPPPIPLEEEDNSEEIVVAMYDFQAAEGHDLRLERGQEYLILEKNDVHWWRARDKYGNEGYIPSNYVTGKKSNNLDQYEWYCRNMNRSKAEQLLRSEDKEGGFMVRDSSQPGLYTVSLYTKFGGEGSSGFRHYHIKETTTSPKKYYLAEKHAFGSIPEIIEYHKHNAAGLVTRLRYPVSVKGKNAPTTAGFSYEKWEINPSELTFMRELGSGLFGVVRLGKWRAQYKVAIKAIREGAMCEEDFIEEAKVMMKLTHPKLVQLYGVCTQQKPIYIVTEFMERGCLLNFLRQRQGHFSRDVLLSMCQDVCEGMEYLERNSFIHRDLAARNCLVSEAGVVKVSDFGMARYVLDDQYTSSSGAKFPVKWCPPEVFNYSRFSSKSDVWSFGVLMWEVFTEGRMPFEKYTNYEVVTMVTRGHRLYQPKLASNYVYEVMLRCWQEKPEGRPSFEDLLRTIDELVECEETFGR

[3] = Unbound plasma concentration in rat at 2 uM measured after 4 hrs by LC-MS/MS analysis; format: ADME, cell-free
[4] = Unbound plasma concentration in human at 2 uM measured after 4 hrs by LC-MS/MS analysis; format: ADME, cell-free
[5] = system: Plasma; test: Drug degradation in human plasma measured after 2 hrs by metabolite identification method; format: ADME, cell-free

Compound | Vd [1] [L/kg] | inhibition [2] [%] | fraction unbound at 4 h, 2 µM [3] | fraction unbound at 4 h, 2 µM [4] | Drug degradation [5] [%]
C=CC(=O)N[C@H]1COC[C@H]1Nc1ncc(OCc2c(F)c(OC)cc(OC)c2F)cn1 | 0.58 | -1 | 0.309 | 0.354 | –
C=CC(=O)Nc1cccc(C)c1Nc1ncc(OCc2c(F)c(OC)cc(OC)c2F)cn1 | – | – | – | – | 30
C=CC(=O)Nc1cccc(C)c1Nc1ncc2cc(-c3c(Cl)c(OC)cc(OC)c3Cl)ccc2n1 | – | -5 | – | – | –
